Assay: xn = mol fraction of the nth substance listed
Details: 101 kPa, Liquid; for viscosity: Concentric cylinders viscometry; for mass density: Vibrating tube method

COCCOCCOCCOCCOC [2,5,8,11,14-pentaoxapentadecane] + CCOC(=O)C(C)O
Details | mass density [kg/m3] | viscosity [mPa·s]
288.15 K, x2 = 0 | 1016.7 | 4.353
288.15 K, x2 = 0.0999 | 1018.51 | 4.303
288.15 K, x2 = 0.1999 | 1020.55 | 4.265
288.15 K, x2 = 0.2999 | 1022.59 | 4.226
288.15 K, x2 = 0.3998 | 1024.79 | 4.176
288.15 K, x2 = 0.4999 | 1027.14 | 4.109
288.15 K, x2 = 0.6001 | 1029.57 | 4.027
288.15 K, x2 = 0.6998 | 1032.25 | 3.906
288.15 K, x2 = 0.8001 | 1034.95 | 3.746
288.15 K, x2 = 0.9 | 1037.37 | 3.53
293.15 K, x2 = 0 | 1012.06 | 3.795
293.15 K, x2 = 0.0999 | 1013.83 | 3.749
293.15 K, x2 = 0.1999 | 1015.83 | 3.713
293.15 K, x2 = 0.2999 | 1017.82 | 3.673
293.15 K, x2 = 0.3998 | 1019.98 | 3.623
293.15 K, x2 = 0.4999 | 1022.26 | 3.557
293.15 K, x2 = 0.6001 | 1024.61 | 3.478
293.15 K, x2 = 0.6998 | 1027.18 | 3.364
293.15 K, x2 = 0.8001 | 1029.8 | 3.219
293.15 K, x2 = 0.9 | 1032.09 | 3.028
298.15 K, x2 = 0 | 1007.42 | 3.348
298.15 K, x2 = 0.0999 | 1009.15 | 3.299
298.15 K, x2 = 0.1999 | 1011.11 | 3.266
298.15 K, x2 = 0.2999 | 1013.05 | 3.23
298.15 K, x2 = 0.3998 | 1015.17 | 3.181
298.15 K, x2 = 0.4999 | 1017.37 | 3.115
298.15 K, x2 = 0.6001 | 1019.64 | 3.036
298.15 K, x2 = 0.6998 | 1022.11 | 2.929
298.15 K, x2 = 0.8001 | 1024.63 | 2.8
298.15 K, x2 = 0.9 | 1026.8 | 2.633
303.15 K, x2 = 0 | 1002.79 | 2.983
303.15 K, x2 = 0.0999 | 1004.48 | 2.933
303.15 K, x2 = 0.1999 | 1006.39 | 2.9
303.15 K, x2 = 0.2999 | 1008.28 | 2.864
303.15 K, x2 = 0.3998 | 1010.34 | 2.815
303.15 K, x2 = 0.4999 | 1012.47 | 2.752
303.15 K, x2 = 0.6001 | 1014.66 | 2.681
303.15 K, x2 = 0.6998 | 1017.03 | 2.58
303.15 K, x2 = 0.8001 | 1019.45 | 2.463
303.15 K, x2 = 0.9 | 1021.49 | 2.311
308.15 K, x2 = 0 | 998.153 | 2.668
308.15 K, x2 = 0.0999 | 999.806 | 2.626
308.15 K, x2 = 0.1999 | 1001.67 | 2.593
308.15 K, x2 = 0.2999 | 1003.5 | 2.557
308.15 K, x2 = 0.3998 | 1005.51 | 2.511
308.15 K, x2 = 0.4999 | 1007.57 | 2.452
308.15 K, x2 = 0.6001 | 1009.68 | 2.385
308.15 K, x2 = 0.6998 | 1011.95 | 2.293
308.15 K, x2 = 0.8001 | 1014.25 | 2.184
308.15 K, x2 = 0.9 | 1016.16 | 2.046
313.15 K, x2 = 0 | 993.523 | 2.407
313.15 K, x2 = 0.0999 | 995.132 | 2.367
313.15 K, x2 = 0.1999 | 996.945 | 2.336
313.15 K, x2 = 0.2999 | 998.729 | 2.301
313.15 K, x2 = 0.3998 | 1000.64 | 2.257
313.15 K, x2 = 0.4999 | 1002.66 | 2.2
313.15 K, x2 = 0.6001 | 1004.68 | 2.137
313.15 K, x2 = 0.6998 | 1006.87 | 2.053
313.15 K, x2 = 0.8001 | 1009.04 | 1.953
313.15 K, x2 = 0.9 | 1010.8 | 1.827
318.15 K, x2 = 0 | 988.892 | 2.185
318.15 K, x2 = 0.0999 | 990.453 | 2.147
318.15 K, x2 = 0.1999 | 992.217 | 2.115
318.15 K, x2 = 0.2999 | 993.944 | 2.081
318.15 K, x2 = 0.3998 | 995.8 | 2.041
318.15 K, x2 = 0.4999 | 997.738 | 1.991
318.15 K, x2 = 0.6001 | 999.671 | 1.932
318.15 K, x2 = 0.6998 | 1001.77 | 1.854
318.15 K, x2 = 0.8001 | 1003.81 | 1.76
318.15 K, x2 = 0.9 | 1005.43 | 1.642
323.15 K, x2 = 0 | 984.262 | 2.003
323.15 K, x2 = 0.0999 | 985.775 | 1.972
323.15 K, x2 = 0.1999 | 987.487 | 1.943
323.15 K, x2 = 0.2999 | 989.156 | 1.91
323.15 K, x2 = 0.3998 | 990.94 | 1.87
323.15 K, x2 = 0.4999 | 992.806 | 1.818
323.15 K, x2 = 0.6001 | 994.651 | 1.763
323.15 K, x2 = 0.6998 | 996.689 | 1.69
323.15 K, x2 = 0.8001 | 998.562 | 1.605
323.15 K, x2 = 0.9 | 1000.06 | 1.496

CCOC(=O)C(C)O (stereo not drawn) [DL-ethyl lactate] + C1CCOC1
Details | mass density [kg/m3] | viscosity [mPa·s]
288.15 K, x1 = 0.1002 | 913.682 | 0.6267
288.15 K, x1 = 0.2001 | 932.177 | 0.7629
288.15 K, x1 = 0.3001 | 949.134 | 0.9181
288.15 K, x1 = 0.4001 | 964.944 | 1.095
288.15 K, x1 = 0.4999 | 979.595 | 1.313
288.15 K, x1 = 0.5999 | 993.315 | 1.58
288.15 K, x1 = 0.6999 | 1006.15 | 1.91
288.15 K, x1 = 0.7999 | 1018.13 | 2.309
288.15 K, x1 = 0.8997 | 1029.17 | 2.754
288.15 K, x1 = 1 | 1039.28 | 3.207
293.15 K, x1 = 0.1002 | 908.275 | 0.5901
293.15 K, x1 = 0.2001 | 926.796 | 0.7128
293.15 K, x1 = 0.3001 | 943.748 | 0.8562
293.15 K, x1 = 0.4001 | 959.567 | 1.013
293.15 K, x1 = 0.4999 | 974.209 | 1.2
293.15 K, x1 = 0.5999 | 987.924 | 1.426
293.15 K, x1 = 0.6999 | 1000.76 | 1.701
293.15 K, x1 = 0.7999 | 1012.74 | 2.028
293.15 K, x1 = 0.8997 | 1023.77 | 2.389
293.15 K, x1 = 1 | 1033.84 | 2.75
298.15 K, x1 = 0.1002 | 902.835 | 0.5622
298.15 K, x1 = 0.2001 | 921.368 | 0.6721
298.15 K, x1 = 0.3001 | 938.334 | 0.8003
298.15 K, x1 = 0.4001 | 954.154 | 0.9386
298.15 K, x1 = 0.4999 | 968.8 | 1.103
298.15 K, x1 = 0.5999 | 982.515 | 1.297
298.15 K, x1 = 0.6999 | 995.342 | 1.527
298.15 K, x1 = 0.7999 | 1007.32 | 1.799
298.15 K, x1 = 0.8997 | 1018.34 | 2.096
298.15 K, x1 = 1 | 1028.39 | 2.39
303.15 K, x1 = 0.1002 | 897.364 | 0.5357
303.15 K, x1 = 0.2001 | 915.916 | 0.6349
303.15 K, x1 = 0.3001 | 932.893 | 0.7493
303.15 K, x1 = 0.4001 | 948.718 | 0.8721
303.15 K, x1 = 0.4999 | 963.363 | 1.016
303.15 K, x1 = 0.5999 | 977.073 | 1.183
303.15 K, x1 = 0.6999 | 989.9 | 1.38
303.15 K, x1 = 0.7999 | 1001.88 | 1.607
303.15 K, x1 = 0.8997 | 1012.89 | 1.854
303.15 K, x1 = 1 | 1022.92 | 2.097
308.15 K, x1 = 0.1002 | 891.857 | 0.5111
308.15 K, x1 = 0.2001 | 910.441 | 0.6006
308.15 K, x1 = 0.3001 | 927.416 | 0.7023
308.15 K, x1 = 0.4001 | 943.254 | 0.8122
308.15 K, x1 = 0.4999 | 957.89 | 0.9381
308.15 K, x1 = 0.5999 | 971.596 | 1.084
308.15 K, x1 = 0.6999 | 984.431 | 1.255
308.15 K, x1 = 0.7999 | 996.411 | 1.449
308.15 K, x1 = 0.8997 | 1007.43 | 1.657
308.15 K, x1 = 1 | 1017.42 | 1.858
313.15 K, x1 = 0.1002 | 886.313 | 0.4852
313.15 K, x1 = 0.2001 | 904.918 | 0.5661
313.15 K, x1 = 0.3001 | 921.903 | 0.659
313.15 K, x1 = 0.4001 | 937.749 | 0.7575
313.15 K, x1 = 0.4999 | 952.388 | 0.8692
313.15 K, x1 = 0.5999 | 966.093 | 0.9979
313.15 K, x1 = 0.6999 | 978.93 | 1.146
313.15 K, x1 = 0.7999 | 990.912 | 1.313
313.15 K, x1 = 0.8997 | 1001.93 | 1.489
313.15 K, x1 = 1 | 1011.9 | 1.658
318.15 K, x1 = 0.1002 | 880.728 | 0.4556
318.15 K, x1 = 0.2001 | 899.348 | 0.5305
318.15 K, x1 = 0.3001 | 916.356 | 0.6187
318.15 K, x1 = 0.4001 | 932.209 | 0.7066
318.15 K, x1 = 0.4999 | 946.847 | 0.8068
318.15 K, x1 = 0.5999 | 960.559 | 0.92
318.15 K, x1 = 0.6999 | 973.398 | 1.052
318.15 K, x1 = 0.7999 | 985.384 | 1.196
318.15 K, x1 = 0.8997 | 996.4 | 1.348
318.15 K, x1 = 1 | 1006.36 | 1.491
323.15 K, x1 = 0.1002 | 875.1 | 0.4242
323.15 K, x1 = 0.2001 | 893.744 | 0.5003
323.15 K, x1 = 0.3001 | 910.77 | 0.5839
323.15 K, x1 = 0.4001 | 926.634 | 0.6648
323.15 K, x1 = 0.4999 | 941.277 | 0.755
323.15 K, x1 = 0.5999 | 954.994 | 0.8565
323.15 K, x1 = 0.6999 | 967.835 | 0.9727
323.15 K, x1 = 0.7999 | 979.827 | 1.103
323.15 K, x1 = 0.8997 | 990.842 | 1.235
323.15 K, x1 = 1 | 1000.79 | 1.349

Reference: the NIST ThermoML archive (doi:10.1016/j.fluid.2014.04.002)
